In patent EP0551200A1, “Protein phosphatase inhibitors for use in therapy” (priority 1992, dated 1993):

What was measured:
human fibroblasts = experiment: Early protein phosphorylation changes in 32P-labeled cells, two-dimensional gel electrophoresis with computerized densitometry; format: cell-based
Description: The cells were then subjected to analysis by high resolution two-dimensional gel electrophoresis combined with computerized imaging as previously described (Guy et al, J. Biol. Chem. 266, 14343-14352, 1991).
Radiolabeling of Cells and Cell Lysis - For labeling with [³²P]orthophosphate cells were plated onto 90 mm plastic tissue culture dishes and incubated for 3 days for the cells to become confluent. Immediately before labeling, the media was removed and the cells were washed twice with 5 ml of phosphate- and serum-free media (150 mM NaCl, 5 mM MgCl₂, 5 mM KCl, 1.6 mM CaCl₂, 0.5% glucose, 10 mM Tris, 0.1% bovine serum albumin, pH 7.4) before the addition of 1 mCi/ml of [³²P]orthophosphate in 3 ml of the same media to each plate. The plates were incubated at 37°C in a humidified CO₂ incubator for 2 h before the addition of the okadaic acid or other agonists at the concentrations and for the times indicated in the figures and table. The agonists were reconstituted in aqueous buffered solution or in dimethyl sulfoxide. […] At the completion of labeling the media was removed, and the cells were rapidly washed twice with 5 ml of ice-cold phosphate-buffered saline before being solubilised in 200 µl of cytosol extraction buffer (10mM Tris-HCl, 50 mM EDTA, 50 mM NaCl, 30 mM sodium pyrophosphate, 50 mM NaF, 100µM Na₃VO₄, 0.65% Nonidet P-40, 2 mM leupeptin, 2mM phenylmethylsulfonyl fluoride, pH 7.4). The lysate was collected and centrifuged for 5 min at 14,000 rpm. The pellet containing the nuclear fraction (including the cytoskeletal-membrane fractions) was separated from the cytosolic fraction. Both fractions were lyophilized.
Two-dimensional Gel Electrophoresis - The lyophilized fractions (each of approximately 12 µg) were subjected to isoelectric focusing for 18,000 V/h with pH 3-10 ampholytes using the Millipore Investigator two-dimensional electrophoresis system (Millipore). Following this, the first-dimension gel was extruded and equilibrated in SDS buffer for 2 min before being loaded onto the second dimension 12.5% SDS-polyacrylamide gel. The gel was fixed, dried and ³²P-labeled polypeptides were located by autoradiography by using intensifying screens at -80°C. For measurement of the pH profile, carbamylated protein standards (Pharmacia LKB Biotechnology Inc.) were co-run on duplicate gels and related to proteins of known pI on previously calibrated samples. Molecular weight marker proteins from Sigma were detected by Coomassie Blue staining and marked on the autoradiogram. ³²P-Labeled 27 hsp complex prepared from human fibroblasts heat shocked at 43°C for 30 min was also used as a marker.
Quantitative Determination of Protein Phosphorylation - The amount of protein phosphorylation on autoradiographs derived from cytosolic membrane or antibody-precipitated preparations containing equal amounts of protein were analyzed by computerized densitometry using a Visage 2000 Image analysis system (BioImage Products, Ann Arbor, MI, US).
The ³²P-labeled protein spots are resolved and detected by autoradiography of the high definition two-dimensional gel electrophoresis of cytosolic extracts prepared from ³²P-labeled human fibroblasts. The radioactive spots (each representing one or more phosphoproteins) are analyzed by computerized densitometry. Each spot is arbitrarily assigned a number. […]

Egr-1 protein [1] = experiment: Western blot analysis of Egr-1 protein from primary human fibroblasts; format: cell-based
Description: Quiescent primary human fibroblasts were incubated with MEM containing 0.5 µM of okadaic acid for the times indicated. As a positive control, the quiescent cells were also incubated with medium containing 20% fetal calf serum for 2 h. Total cellular proteins were extracted and subjected to Western blot analysis as described previously (Cao et al, Mol. Cell. Biol. 10, 1931-1939, 1989). The blot was reacted with anti-Egr-1 polyclonal antibody (R5232).
Cellular proteins were extracted from quiescient, okadaic acid-treated and serum-treated human fibroblasts and subjected to Western blot analysis using rabbit polyclonal Egr-1 antibodies. In the control quiescent cells, traces of Egr-1 protein with molecular masses of 80 kDa and 100 kDa were detected. An approximately 6-fold increase of the 80 kDa protein was measured in the cells 2 h after serum stimulation. An approximately 2-fold increase in the 80 kDa Egr-1 protein was detected in the cells after 1 h okadaic acid treatment. However, at 2.5 h after okadaic acid treatment the Egr-1 protein was mostly detected as the 100 kDa moiety rather than as the 80 kDa protein (Fig. 13). […] By 6 h after okadaic acid treatment the cellular level of the 100 kDa Egr-1 protein was reduced (Fig. 13). […]

WISH cells = experiment: Early protein phosphorylation changes in WISH cells; format: cell-based, human; conditions: data not shown
Description: Cell Cultures and Reagents - Human diploid fibroblasts, FS-4, 2343 gifts from Dr. J. Vilcek (New York University). They were grown in tissue culture flasks and maintained with minimal essential medium (MEM) supplemented with 10% fetal bovine serum (Hyclone, Logan, UT, US) herein referred to as regular medium. Human WISH cells were purchased from the American Type Culture Collection. Recombinant human TNF and IL-1 with specific activities of 2 x 10⁷ units and 1 x 10⁸ units/mg protein, respectively, and of purities of ≧99% were purchased from Genzyme Corp. (Cambridge, MA, US). Phorbol 12-myristate 13-acetate, bradykinin, forskolin, dibutyryl-cyclic AMP (dBt-cAMP) and FGF were from Sigma, Okadaic acid was purchased from Biomol (Plymouth Meeting, PA, US). Radioactive [³²P]P was from Du Pont-New England Nuclear. […]
Two-dimensional Gel Electrophoresis - The lyophilized fractions (each of approximately 12 µg) were subjected to isoelectric focusing for 18,000 V/h with pH 3-10 ampholytes using the Millipore Investigator two-dimensional electrophoresis system (Millipore). […] Molecular weight marker proteins from Sigma were detected by Coomassie Blue staining and marked on the autoradiogram. ³²P-Labeled 27 hsp complex prepared from human fibroblasts heat shocked at 43°C for 30 min was also used as a marker.

Egr-1 protein [2] = format: cell-based; conditions: 2 h treatment, data not shown
Description: Quiescent human fibroblasts were stimulated with MEM containing 0.5 µM okadaic acid in the presence or absence of cycloheximide (10 µg/ml) for the times indicated in Fig. 11. […] Treatment of cells with cycloheximide enhanced the induction of Egr-1 mRNA by okadaic acid at 1.5 and 3 h (Fig. 11). Similarly puromycin, like cycloheximide, also "superinduces" the induction of the Egr-1 mRNA by okadaic acid (data not shown). […] However, in view that protein phosphatase 1 (PP1) and protein phosphatase 2A (PP2A) regulate enzymes associated with cellular protein synthesis (Cohen, Annu. Rev. Biochem. 58, 453-508, 1989) the effect of okadaic acid on protein synthesis in mouse and human fibroblasts was also measured. […] By then the Egr-1 mRNA message was already induced. A corollary to this is a comparison of the amount of ³⁵S-methionine labelled Egr-1 protein immunoprecipitated by R5232 antibodies from protein phosphatase inhibitor-treated and control cells. […] Thus, the induction of the Egr-1 gene by phosphatase inhibitors is unlikely to be mediated by their late inhibitory effects on cellular protein synthesis.

[3] = cytosolic fraction, first 15 min of ligand treatment

C=C1[C@@H](O)[C@@H]2O[C@]3(CC[C@H](/C=C/[C@@H](C)[C@@H]4CC(C)=C[C@@]5(O[C@H](C[C@@](C)(O)C(=O)O)CC[C@H]5O)O4)O3)CC[C@H]2O[C@@H]1[C@@H](O)C[C@H](C)[C@H]1O[C@@]2(CCCCO2)CC[C@H]1C [okadaic acid]
number of proteins dephosphorylated (human fibroblasts; [3]): six
number of proteins with early phosphorylation changes (human fibroblasts; [3]): about 60 proteins
identity of changes in early protein phosphorylation with those induced by TNF (human fibroblasts; cytosolic fraction, okadaic acid, 15 min, TNF 50 units/ml): about 95%
changes in protein phosphorylation compared with TNF treatment (in words) (human fibroblasts; nuclear/cytoskeletal membrane fraction, 46-50 proteins, 15 min): almost identical changes
level of the 100 kDa Egr-1 protein relative to the 80 kDa Egr-1 protein of control cells (Egr-1 protein [1]; 0.5 µM, 2.5 h): 3 to 4 fold
fold induction at 0.5 µM (Egr-1 protein [1]; Homo sapiens, Fibroblast, 1 h, read-out: increase in the 80 kDa Egr-1 protein): ~2
changes in early protein phosphorylation compared with TNF (in words) (WISH cells): almost identical changes
amount of 35S-methionine labeled Egr-1 protein relative to control cells (Egr-1 protein [2]): 4 to 5 fold
